Assay results reported in the supplement of paper PMC10307832.

Assays:
Test in all cases: relative viability (nuclei count vs DMSO), 5 days (fraction); higher = more cells survive
ABC-1 = test system: ABC-1
Procedure, shortened: (§1)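 The day after seeding in 1536-well plates, lung cancer cell lines were treated by pin tool with a single drug, or with a fixed anchor-drug dose together with five library-drug doses (not always all listed) in √10 steps. After 5 days, a combined fix-and-stain solution (final 0.05% Triton X-100, 1% formaldehyde, 1 ug/ml Hoechst) was added. Nuclei counted on 4× images gave relative viability as treated counts over vehicle counts, reported as the median of duplicate plates.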

HARA = test system: HARA
Procedure, shortened: as §1

NCI-H322M = test system: NCI-H322M
Procedure, shortened: as §1

HOP-62 = test system: HOP-62
Procedure, shortened: as §1

NCI-H1993 = test system: NCI-H1993
Procedure, shortened: as §1

NCI-H2170 = test system: NCI-H2170
Procedure, shortened: as §1

NCI-H2009 = test system: NCI-H2009
Procedure, shortened: as §1

NCI-H2228 = test system: NCI-H2228
Procedure, shortened: as §1

NCI-H522 = test system: NCI-H522
Procedure, shortened: as §1

EMC-BAC-2 = test system: EMC-BAC-2
Procedure, shortened: as §1

NCI-H3122 = test system: NCI-H3122
Procedure, shortened: as §1

SK-MES-1 = test system: SK-MES-1
Procedure, shortened: as §1

LK-2 = test system: LK-2
Procedure, shortened: as §1

SW 1573 = test system: SW 1573
Procedure, shortened: as §1

NCI-H596 = test system: NCI-H596
Procedure, shortened: as §1

NCI-H1944 = test system: NCI-H1944
Procedure, shortened: as §1

LXF-289 = test system: LXF-289
Procedure, shortened: as §1

A-427 = test system: A-427
Procedure, shortened: as §1

NCI-H727 = test system: NCI-H727
Procedure, shortened: as §1

PC-3 [JPC-3] = test system: PC-3 [JPC-3]
Procedure, shortened: as §1

SW 900 = test system: SW 900
Procedure, shortened: as §1

With `CCN(CC)CCCCNc1ncc2cc(-c3cc(OC)cc(OC)c3)c(NC(=O)NC(C)(C)C)nc2n1` + Cc1cc(Nc2cc(N3CCN(C)CC3)nc(Sc3ccc(NC(=O)C4CC4)cc3)n2)n[nH]1 [Tozasertib] (partner 0.1 µM) the relative viability (ABC-1; first compound 0.01 µM) was 0.211, the relative viability (ABC-1; first compound 0.03162 µM) was 0.21 and the relative viability (ABC-1; first compound 0.1 µM) was 0.207. It also gave a relative viability (ABC-1; first compound 0.3162 µM) of 0.148, a relative viability (ABC-1; first compound 1 µM) of 0.187 and a relative viability (HARA; first compound 0.01 µM) of 0.104. For the same compound, the relative viability (HARA; first compound 0.03162 µM) was 0.122, the relative viability (HARA; first compound 0.1 µM) was 0.0948 and the relative viability (HARA; first compound 0.3162 µM) was 0.0933. It also gave a relative viability (HARA; first compound 1 µM) of 0.0989, a relative viability (NCI-H322M; first compound 0.01 µM) of 0.717 and a relative viability (NCI-H322M; first compound 0.03162 µM) of 0.49. It also gave a relative viability (NCI-H322M; first compound 0.1 µM) of 0.589, a relative viability (NCI-H322M; first compound 0.3162 µM) of 0.57 and a relative viability (NCI-H322M; first compound 1 µM) of 0.448. The relative viability (HOP-62; first compound 0.01 µM) was 0.473, the relative viability (HOP-62; first compound 0.03162 µM) was 0.377 and the relative viability (HOP-62; first compound 0.1 µM) was 0.386. It also gave a relative viability (HOP-62; first compound 0.3162 µM) of 0.408, a relative viability (HOP-62; first compound 1 µM) of 0.319 and a relative viability (NCI-H1993; first compound 0.01 µM) of 0.621. For the same compound, the relative viability (NCI-H1993; first compound 0.03162 µM) was 0.608, the relative viability (NCI-H1993; first compound 0.1 µM) was 0.604 and the relative viability (NCI-H1993; first compound 0.3162 µM) was 0.64. The relative viability (NCI-H1993; first compound 1 µM) was 0.566, the relative viability (NCI-H2170; first compound 0.01 µM) was 0.619 and the relative viability (NCI-H2170; first compound 0.03162 µM) was 0.77. It also gave a relative viability (NCI-H2170; first compound 0.1 µM) of 0.747, a relative viability (NCI-H2170; first compound 0.3162 µM) of 0.755 and a relative viability (NCI-H2170; first compound 1 µM) of 0.65. The relative viability (NCI-H2009; first compound 0.01 µM) was 0.816, the relative viability (NCI-H2009; first compound 0.03162 µM) was 0.72 and the relative viability (NCI-H2009; first compound 0.1 µM) was 0.912. For the same compound, the relative viability (NCI-H2009; first compound 0.3162 µM) was 0.821, the relative viability (NCI-H2009; first compound 1 µM) was 0.573 and the relative viability (NCI-H2228; first compound 0.01 µM) was 0.183. The relative viability (NCI-H2228; first compound 0.03162 µM) was 0.231, the relative viability (NCI-H2228; first compound 0.1 µM) was 0.319 and the relative viability (NCI-H2228; first compound 0.3162 µM) was 0.258. The relative viability (NCI-H2228; first compound 1 µM) was 0.197, the relative viability (NCI-H522; first compound 0.01 µM) was 0.529 and the relative viability (NCI-H522; first compound 0.03162 µM) was 0.604. For the same compound, the relative viability (NCI-H522; first compound 0.1 µM) was 0.575, the relative viability (NCI-H522; first compound 0.3162 µM) was 0.49 and the relative viability (NCI-H522; first compound 1 µM) was 0.534. It also gave a relative viability (EMC-BAC-2; first compound 0.01 µM) of 0.162, a relative viability (EMC-BAC-2; first compound 0.03162 µM) of 0.292 and a relative viability (EMC-BAC-2; first compound 0.1 µM) of 0.277. The relative viability (EMC-BAC-2; first compound 0.3162 µM) was 0.31, the relative viability (EMC-BAC-2; first compound 1 µM) was 0.26 and the relative viability (NCI-H3122; first compound 0.01 µM) was 0.559. It also gave a relative viability (NCI-H3122; first compound 0.03162 µM) of 0.439, a relative viability (NCI-H3122; first compound 0.1 µM) of 0.464 and a relative viability (NCI-H3122; first compound 0.3162 µM) of 0.326. For the same compound, the relative viability (NCI-H3122; first compound 1 µM) was 0.364, the relative viability (SK-MES-1; first compound 0.01 µM) was 1.01 and the relative viability (SK-MES-1; first compound 0.03162 µM) was 1.02. The relative viability (SK-MES-1; first compound 0.1 µM) was 1.1, the relative viability (SK-MES-1; first compound 0.3162 µM) was 1.03 and the relative viability (SK-MES-1; first compound 1 µM) was 0.879. The relative viability (LK-2; first compound 0.01 µM) was 0.168, the relative viability (LK-2; first compound 0.03162 µM) was 0.196 and the relative viability (LK-2; first compound 0.1 µM) was 0.184. The relative viability (LK-2; first compound 0.3162 µM) was 0.213, the relative viability (LK-2; first compound 1 µM) was 0.159 and the relative viability (SW 1573; first compound 0.01 µM) was 0.249. It also gave a relative viability (SW 1573; first compound 0.03162 µM) of 0.148, a relative viability (SW 1573; first compound 0.1 µM) of 0.225 and a relative viability (SW 1573; first compound 0.3162 µM) of 0.193. It also gave a relative viability (SW 1573; first compound 1 µM) of 0.173, a relative viability (NCI-H596; first compound 0.01 µM) of 0.911 and a relative viability (NCI-H596; first compound 0.03162 µM) of 0.903. It also gave a relative viability (NCI-H596; first compound 0.1 µM) of 1.05, a relative viability (NCI-H596; first compound 0.3162 µM) of 0.828 and a relative viability (NCI-H596; first compound 1 µM) of 0.747. For the same compound, the relative viability (NCI-H1944; first compound 0.01 µM) was 0.25, the relative viability (NCI-H1944; first compound 0.03162 µM) was 0.27 and the relative viability (NCI-H1944; first compound 0.1 µM) was 0.248. It also gave a relative viability (NCI-H1944; first compound 0.3162 µM) of 0.249, a relative viability (NCI-H1944; first compound 1 µM) of 0.213 and a relative viability (LXF-289; first compound 0.01 µM) of 0.201. The relative viability (LXF-289; first compound 0.03162 µM) was 0.219, the relative viability (LXF-289; first compound 0.1 µM) was 0.268 and the relative viability (LXF-289; first compound 0.3162 µM) was 0.186. It also gave a relative viability (LXF-289; first compound 1 µM) of 0.156, a relative viability (A-427; first compound 0.01 µM) of 0.199 and a relative viability (A-427; first compound 0.03162 µM) of 0.206. The relative viability (A-427; first compound 0.1 µM) was 0.202, the relative viability (A-427; first compound 0.3162 µM) was 0.174 and the relative viability (A-427; first compound 1 µM) was 0.182. The relative viability (NCI-H727; first compound 0.01 µM) was 0.661, the relative viability (NCI-H727; first compound 0.03162 µM) was 0.521 and the relative viability (NCI-H727; first compound 0.1 µM) was 0.571. It also gave a relative viability (NCI-H727; first compound 0.3162 µM) of 0.659, a relative viability (NCI-H727; first compound 1 µM) of 0.525 and a relative viability (PC-3 [JPC-3]; first compound 0.01 µM) of 0.988. It also gave a relative viability (PC-3 [JPC-3]; first compound 0.03162 µM) of 0.958, a relative viability (PC-3 [JPC-3]; first compound 0.1 µM) of 1.09 and a relative viability (PC-3 [JPC-3]; first compound 0.3162 µM) of 0.892. For the same compound, the relative viability (PC-3 [JPC-3]; first compound 1 µM) was 0.632, the relative viability (SW 900; first compound 0.01 µM) was 0.662 and the relative viability (SW 900; first compound 0.03162 µM) was 0.573. For the same compound, the relative viability (SW 900; first compound 0.3162 µM) was 0.451 and the relative viability (SW 900; first compound 1 µM) was 0.382.
